Reference: article PMC10584170, “Machine learning-based phenotypic imaging to characterise the targetable biology of Plasmodium falciparum male gametocytes for the development of transmission-blocking antimalarials” (PLOS Pathogens, 2023)
Like-named read-outs stand apart in the source and are kept apart here. Each block holds one compound with its values, some of them ahead of it.

Tests used:
[1] = test system: P. falciparum female gametocytes; assay: P. falciparum Dual Gamete Formation Assay (PfDGFA), female readout (Pfs25-positive female gametes); format: cell-based, Plasmodium falciparum NF54; details: for inhibition at 2 µM: 24h preincubation with gametocytes
Outline: (§1)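 Mature NF54 gametocytes (day 14) were incubated with compound for 24 h at 37°C under 1% O2/3% CO2, then triggered with xanthurenic acid ookinete medium plus Cy3-anti-Pfs25. Exflagellation was imaged by brightfield; after a further 24 h at 28°C, Pfs25-positive female gametes were imaged by fluorescence and counted by automated image analysis.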

[2] = test system: cyclin-dependent protein kinase 6 (PfPK6); set-up: method as in PMID 26934697; details: cited from earlier work
HepG2 cells = assay: HepG2 cytotoxicity counter-screen
[3] = test system: P. falciparum male gametocytes; assay: P. falciparum Dual Gamete Formation Assay (PfDGFA), male readout (exflagellation); format: cell-based, Plasmodium falciparum NF54; details: for inhibition at 2 µM: 24h preincubation with gametocytes
Outline: as §1

[4] = test system: P. falciparum male gametocytes; assay: PhIDDLI timecourse assay, compound added at timepoints after triggering male gametogenesis; format: cell-based, Plasmodium falciparum NF54
[5] = test system: calcium-dependent protein kinase 1 (PfCDPK1); details: cited from earlier work
[6] = test system: P. falciparum protein kinase G (PfPKG); details: cited from earlier work

IC50 ([3]; this study, read-out: Pf DGFA IC50 MALE): 250 nM
Compound: CNC(=O)c1ccccc1Nc1nc(Nc2ccc(N3CCN(C)CC3)nc2)ncc1C.Cl [TC11]
Cytotox ratio Pf Female [1]: 0.344
activity against recombinant PfPK6 [2]: active
Mean TOX (HepG2 cells; mean of the HepG2 TOX50 values): 3.44 µM
Cytotox ratio Pf Male [3]: 13.8
cells showing apparent DNA replication ([4]; compound added concurrent with induction, fixed 20 min post-induction, DMSO control 61.4%): 18.6%
effect on exflagellation ([4]; compound added concurrent with triggering male gametogenesis or 2 min later): substantially reduced
amounts of cells showing evidence of DNA replication ([4]; compound added during the first 2 min of male gametogenesis): markedly reduced
effect on exflagellation ([4]; compound added later than 2 min post-induction (up to 10 min)): inhibited exflagellation
activity against recombinant PfCDPK1 ([5]; enzymatic assay): active

IC50 ([1]; Plasmodium falciparum, PfDGFA, 24 h incubation with gametocytes before induction, female gamete readout, read-out: Female IC50): 270 nM
IC50 ([3]; Plasmodium falciparum, PfDGFA, 24 h incubation with gametocytes before induction, exflagellation readout, read-out: Male IC50): 910 nM
Compound: CC(C)(CN)c1nc(-c2ccc(Cl)c(O)c2)c(-c2ccncc2)[nH]1.Cl [TCMDC-140369]
inhibition at 2 µM ([1]; Plasmodium falciparum, average of replicates, read-out: Average inhibition female (%)): 51.4%
inhibition at 2 µM ([1]; Plasmodium falciparum, replicate R1, read-out: % inhibition female (individual replicates) R1): 22.1%
inhibition at 2 µM ([1]; Plasmodium falciparum, replicate R2, read-out: % inhibition female (individual replicates) R2): 80%
inhibition at 2 µM ([1]; Plasmodium falciparum, replicate R3, read-out: % inhibition female (individual replicates) R3): 27.7%
inhibition at 2 µM ([1]; Plasmodium falciparum, replicate R4, read-out: % inhibition female (individual replicates) R4): 75.6%
PfPKG inhibition [6]: PfPKG inhibitor
Tox50 (HepG2 cells; cytotoxic activity against HepG2 cells): 17.63 µM
inhibition at 2 µM ([3]; Plasmodium falciparum, average of replicates, read-out: Average inhibition male (%)): 95%
inhibition at 2 µM ([3]; Plasmodium falciparum, replicate R1, read-out: % inhibition male (individual replicates) R1): 96%
inhibition at 2 µM ([3]; Plasmodium falciparum, replicate R2, read-out: % inhibition male (individual replicates) R2): 97.9%
inhibition at 2 µM ([3]; Plasmodium falciparum, replicate R3, read-out: % inhibition male (individual replicates) R3): 95.1%
inhibition at 2 µM ([3]; Plasmodium falciparum, replicate R4, read-out: % inhibition male (individual replicates) R4): 90.9%
activity against PfCDPK1 [5]: additional activity
